# Tests used:
# Assay type in all cases: cell-based
# [1] = tested on: synthetic promoter G5TO4 (tetracycline transcription silencer tTS); conditions: clone #32, 1 μg/ml tetracycline
# [2] = tested on: synthetic promoter G5TO4 (tetracycline transcription silencer tTS)
# [3] = tested on: synthetic promoter G5TO4 (tetracycline transcription silencer tTS); conditions: 1 μg/ml tetracycline; culture medium two days post-transfection; HeLa-tTS
smiles,measurement,setting,value
CN(C)[C@@H]1C(O)=C(C(N)=O)C(=O)[C@@]2(O)C(O)=C3C(=O)c4c(O)cccc4[C@@](C)(O)[C@H]3C[C@@H]12 [tetracycline],reporter gene activation when tetracycline was added to the culture medium,[1],more than 200 fold
same,luciferase activity in medium of cells treated with tetracycline vs. not treated,"[1]; 96-well microplate, one day",200 fold
same,reporter activation by the addition of tetracycline,[2],more than 14 fold
same,relative light units (RLU) with tetracycline vs. absence of tetracycline,[3],16 fold
